This note sets out measurements from PubChem BioAssay AID314 (DTP/NCI, 2004).

The test system of this test is DBA/2 mice, P1534 leukemia ip, survival T/C. Nature of the test: NCI In Vivo Anticancer Drug Screen. Data for tumor model P1534 Leukemia (intraperitoneal) in DBA/2 mice. Particulars: endpoint: mean survival time, higher = longer survival. How it is done: The antitumor activity of compounds was measured in mice bearing transplantable tumors. Survival or tumor size were measured and the results are expressed as the measurement made in the treated group (T) divided by the measurement made in the vehicle treated control group (C). The tumor model used in this assay is P1534 Leukemia (intraperitoneal) in DBA/2 mice

The mark [1] stands for this setting: dose: 12.5 mg/kg/injection, schedule: Q01DX010 (sc), vehicle: steriod suspending solution.
Setting [2] is: dose: 50.0 mg/kg/injection, schedule: Q01DX010 (ip), vehicle: saline.
Where [3] appears, read: dose: 100.0 mg/kg/injection, schedule: Q01DX010 (ip), vehicle: saline.
[4] abbreviates: dose: 125.0 mg/kg/injection, schedule: Q01DX010 (ip), vehicle: saline.
Setting [5] is: dose: 250.0 mg/kg/injection, schedule: Q01DX010 (ip), vehicle: saline.
[6] abbreviates: dose: 500.0 mg/kg/injection, schedule: Q01DX010 (ip), vehicle: saline.
Where [7] appears, read: dose: 0.13 mg/kg/injection, schedule: Q01DX010 (ip), vehicle: saline.
[8] abbreviates: dose: 0.25 mg/kg/injection, schedule: Q01DX010 (ip), vehicle: saline.
Setting [9] is: dose: 0.5 mg/kg/injection, schedule: Q01DX010 (ip), vehicle: saline.
Setting [10] is: dose: 1.0 mg/kg/injection, schedule: Q01DX010 (ip), vehicle: saline.
[11] abbreviates: dose: 15.6 mg/kg/injection, schedule: Q01DX010 (ip), vehicle: saline.
[12] abbreviates: dose: 31.3 mg/kg/injection, schedule: Q01DX010 (ip), vehicle: saline.
The mark [13] stands for this setting: dose: 62.5 mg/kg/injection, schedule: Q01DX010 (ip), vehicle: saline.
Setting [14] is: dose: 2.5 mg/kg/injection, schedule: Q01DX010 (ip), vehicle: saline.
Setting [15] is: dose: 2.0 mg/kg/injection, schedule: Q01DX010 (ip), vehicle: saline.
The mark [16] stands for this setting: dose: 8.0 mg/kg/injection, schedule: Q01DX010 (ip), vehicle: saline.
Where [17] appears, read: dose: 16.0 mg/kg/injection, schedule: Q01DX010 (ip), vehicle: saline.
[18] abbreviates: dose: 32.0 mg/kg/injection, schedule: Q01DX010 (ip), vehicle: saline.
The mark [19] stands for this setting: dose: 64.0 mg/kg/injection, schedule: Q01DX010 (ip), vehicle: saline.
The mark [20] stands for this setting: dose: 25.0 mg/kg/injection, schedule: Q01DX010 (ip), vehicle: saline.
The mark [21] stands for this setting: dose: 3.13 mg/kg/injection, schedule: Q01DX010 (ip), vehicle: saline.
Where [22] appears, read: dose: 6.25 mg/kg/injection, schedule: Q01DX010 (ip), vehicle: saline.
[23] abbreviates: dose: 12.5 mg/kg/injection, schedule: Q01DX010 (ip), vehicle: saline.
[24] abbreviates: dose: 10.0 mg/kg/injection, schedule: Q01DX010 (ip), vehicle: saline.

The structures appear in SMILES notation. Values joined by “and” are separate entries in the source; they are usually repeats but may differ in a detail not shown here. Equal entries are not always repeated. Toxic doses and inconclusive results are not listed. Starred links: 1 amine or outer side, 2 acyl side, 3 side chain; linkers in the order of their positions; H or OH if unused. Positions of bridges follow the written chain, without caps; N, C: chain ends. Non-standard residues stand in square brackets, D forms with d. Residues, ends and D or L forms follow the SMILES beside them. Chains are numbered I, II in the order given. Actinocin(9to1) = Cc1c2oc3c(C)ccc(C(=O)[*:1])c3nc-2c(C(=O)[*:2])c(N)c1=O; aThr = C[C@H](O)[C@H](N)C(=O)O; NMeV = CN[C@H](C(=O)O)C(C)C; Sar = CNCC(=O)O

Regarding `Cc1c2oc3c(C)ccc(C(=O)N[C@@H]4C(=O)N[C@H](C(C)C)C(=O)N5CCC[C@H]5C(=O)N(C)CC(=O)N(C)[C@@H](C(C)C)C(=O)O[C@H]4C)c3nc-2c(C(=O)N[C@@H]2C(=O)N[C@H](C(C)C)C(=O)N3CCC[C@H]3C(=O)N(C)CC(=O)N(C)[C@@H](C(C)C)C(=O)O[C@H]2C)c(N)c1=O` (I: [aThr][dV]P[Sar][NMeV] / II: [aThr][dV]P[Sar][NMeV]; ester I:1-I:C, II:1-II:C; linker I:N-II:N via Actinocin(9to1)), the T/C was 93 % of control (dose: 0.02 mg/kg/injection, schedule: Q01DX010 (ip), vehicle: other); 104 % of control (dose: 0.03 mg/kg/injection, schedule: Q01DX010 (ip), vehicle: other); 97 % of control (dose: 0.03 mg/kg/injection, schedule: Q01DX010 (ip), vehicle: saline); 103 % of control (dose: 0.06 mg/kg/injection, schedule: Q01DX010 (ip), vehicle: other); 100 % of control (dose: 0.06 mg/kg/injection, schedule: Q01DX010 (ip), vehicle: saline).
For `C[C@]12C[C@H](O)[C@H]3[C@@H](CCC4=CC(=O)CC[C@@]43C)[C@@H]1CC[C@@H]2C(=O)CO`, the T/C by setting is: under setting [1], 100 % of control; (dose: 25.0 mg/kg/injection, schedule: Q01DX010 (sc), vehicle: steriod suspending solution) 100 % of control; (dose: 50.0 mg/kg/injection, schedule: Q01DX010 (sc), vehicle: steriod suspending solution) 100 % of control; (dose: 100.0 mg/kg/injection, schedule: Q01DX010 (sc), vehicle: steriod suspending solution) 100 % of control.
Take `C[C@]12CCC(=O)C[C@H]1CC[C@@H]1[C@@H]2CC[C@@]2(C)[C@H]1CC[C@]2(C)O`: the T/C is, setting by setting: (dose: 50.0 mg/kg/injection, schedule: Q01DX010 (sc), vehicle: saline) 104 % of control; (dose: 100.0 mg/kg/injection, schedule: Q01DX010 (sc), vehicle: saline) 100 % of control; (dose: 200.0 mg/kg/injection, schedule: Q01DX010 (sc), vehicle: saline) 100 % of control; (dose: 400.0 mg/kg/injection, schedule: Q01DX010 (sc), vehicle: saline) 108 % of control.
Turning to `N=C(N)c1ccc(Nc2ccc(C(=N)N)cc2)cc1`, the T/C is, setting by setting: (dose: 6.0 mg/kg/injection, schedule: Q01DX010 (ip), vehicle: saline) 96 % of control; (dose: 12.0 mg/kg/injection, schedule: Q01DX010 (ip), vehicle: saline) 89 % of control and 100 % of control.
For `[N-]=[N+]=CC(=O)NCC(=O)NN`, the T/C is, setting by setting: under setting [2], 108 % of control; under setting [3], 100 % of control; (dose: 200.0 mg/kg/injection, schedule: Q01DX010 (ip), vehicle: saline) 95 % of control; (dose: 400.0 mg/kg/injection, schedule: Q01DX010 (ip), vehicle: saline) 91 % of control.
Take `O=CCC(O)C(O)C(O)CO` (stereo not given): the T/C under setting [4] was 103 % of control; the T/C under setting [5] was 92 % of control and 107 % of control; the T/C under setting [6] is 107 % of control and 115 % of control.
Regarding `CN1CCCC1c1cccnc1` (stereo not given), the T/C under setting [7] was 100 % of control, the T/C under setting [8] was 100 % of control, the T/C under setting [9] was 100 % of control and the T/C under setting [10] was 100 % of control.
In the case of `O=CN(O)CC(=O)O`, the T/C by setting is: under setting [11], 93 % of control; under setting [12], 93 % of control; under setting [13], 96 % of control; under setting [4], 93 % of control.
Turning to `S=P(N1CCOCC1)(N1CC1)N1CC1`, the T/C was 100 % of control and 103 % of control (dose: 1.25 mg/kg/injection, schedule: Q01DX010 (ip), vehicle: saline); 92 % of control and 100 % of control under setting [14].
Consider `C[C@]12CC[C@H](OC3OC(CO)C(O)C(O)C3O)C[C@H]1CC[C@@H]1[C@@H]2CC[C@]2(C)[C@@H](C3=CCOC3=O)CC[C@]12O` (stereo not given in full), for which the T/C under setting [9] is 100 % of control and the T/C under setting [10] was 91 % of control.
Regarding `O=C(Nc1ccc(C2=NCCN2)cc1)c1cc(Cl)cc(C(=O)Nc2ccc(C3=NCCN3)cc2)c1`, the T/C was 96 % of control and 100 % of control (dose: 140.0 mg/kg/injection, schedule: Q01DX010 (ip), vehicle: saline); 92 % of control and 107 % of control (dose: 210.0 mg/kg/injection, schedule: Q01DX010 (ip), vehicle: saline); 96 % of control and 115 % of control (dose: 315.0 mg/kg/injection, schedule: Q01DX010 (ip), vehicle: saline); 103 % of control and 111 % of control (dose: 473.0 mg/kg/injection, schedule: Q01DX010 (ip), vehicle: saline).
For `N[C@@H](Cc1ccc(N(CCCl)CCCl)cc1)C(=O)O`, the T/C is 119 % of control and 123 % of control under setting [9]; 88 % of control (dose: 1.0 mg/kg/injection, schedule: Q01DX010 (ip), vehicle: other); 119 % of control and 123 % of control under setting [10]; 161 % of control under setting [15].
Take `NCCCCCCNC(=O)CCCCC(=O)NCCCCCCN`: the T/C reads like this: under setting [16], 100 % of control; under setting [17], 100 % of control; under setting [18], 95 % of control; under setting [19], 95 % of control.
As for `NCCCCCCNC(=O)CCC(=O)NCCCCCCN`, the T/C reads like this: under setting [17], 95 % of control; under setting [19], 91 % of control.
`CN(C)/N=N/c1nc[nH]c1C(N)=O`: the T/C was 96 % of control under setting [20], 90 % of control under setting [2] and 86 % of control under setting [3].
For `C[C@H]1C(=O)O[C@@H]2CCN3CC=C(COC(=O)[C@](C)(O)[C@@]1(C)O)[C@H]23`, the T/C under setting [21] is 100 % of control and 117 % of control; the T/C under setting [22] is 96 % of control and 107 % of control; the T/C under setting [23] is 96 % of control and 107 % of control; the T/C under setting [20] is 100 % of control.
Turning to `CN[C@H]1CCc2cc(OC)c(OC)c(OC)c2-c2ccc(OC)c(=O)cc21`, the T/C runs as follows: (dose: 0.63 mg/kg/injection, schedule: Q01DX010 (ip), vehicle: other) 111 % of control and 115 % of control; (dose: 1.25 mg/kg/injection, schedule: Q01DX010 (ip), vehicle: other) 100 % of control and 103 % of control.
Regarding `CC(=O)O[C@]1(C(C)=O)CC[C@H]2[C@@H]3C[C@H](C)C4=CC(=O)C=C[C@]4(C)[C@@]3(F)[C@@H](O)C[C@@]21C`, under setting [1], the T/C is 88 % of control.
Consider `O=C(Nc1ccc(C2=NCCN2)cc1)c1cccc(C(=O)Nc2ccc(C3=NCCN3)cc2)c1`, for which the T/C is 163 % of control under setting [16], 177 % of control under setting [17], 240 % of control under setting [18] and 290 % of control under setting [19].
Take `Nc1nc(=S)c2ncn(C3OC(CO)C(O)C3O)c2[nH]1` (stereo not given): the T/C runs as follows: under setting [8], 110 % of control; under setting [10], 96 % of control; under setting [15], 89 % of control.
Regarding `O=c1[nH]c(=O)n(C2CC(O)C(CO)O2)cc1I` (stereo not given), the T/C under setting [4] was 103 % of control and 107 % of control; the T/C under setting [5] was 103 % of control and 110 % of control; the T/C under setting [6] is 107 % of control and 114 % of control and 121 % of control; the T/C (dose: 1000.0 mg/kg/injection, schedule: Q01DX010 (ip), vehicle: saline) was 110 % of control.
Take `O=C1CCC(N2C(=O)c3ccccc3C2=O)C(=O)N1` (stereo not given): the T/C is 100 % of control under setting [12], 96 % of control under setting [13], 96 % of control under setting [4] and 96 % of control under setting [5].
Take `O[C@H](CN1CC1)[C@@H](O)CN1CC1`: the T/C reads like this: under setting [7], 88 % of control; under setting [8], 96 % of control.
With `CN(C)Cc1c[nH]c2ccccc12`, the T/C under setting [11] is 100 % of control and the T/C under setting [12] is 100 % of control.
As to `COc1cc2c3c(c4ccc(OC)c(OC)c4c2cc1OC)CN1CCC[C@@H]1C3`, the T/C runs as follows: under setting [14], 88 % of control; under setting [24], 92 % of control and 107 % of control; (dose: 15.0 mg/kg/injection, schedule: Q01DX010 (ip), vehicle: saline) 96 % of control and 121 % of control.
`CCc1c(CC(=O)O)c2cc(C)ccc2n1Cc1ccc(Cl)cc1`: the T/C under setting [21] is 103 % of control, the T/C under setting [22] is 107 % of control and the T/C under setting [23] was 103 % of control.
With `CC[n+]1c(-c2ccccc2)c2cc(N)ccc2c2ccc(N)cc21`, the T/C reads like this: (dose: 5.0 mg/kg/injection, schedule: Q01DX010 (ip), vehicle: saline) 113 % of control; under setting [24], 120 % of control.
